Measured values published in patent publication US9593305B2, “Differentiation of pluripotent stem cells” (Janssen Biotech, Inc., priority 2008, dated 2017).

Columns and labels:
[1] = tested on: H1 human embryonic stem cells; assay: Analog screening with GDF-8 and growth factor/agonist pool (Example 8, Tables 7 and 8); type: cell-based
Method: Briefly, clusters of H1 human embryonic stem cells were grown on reduced growth factor […]™ (Invitrogen; Cat #356231)-coated tissue culture plastic. Cells were passaged using collagenase (Invitrogen; Cat #17104-019) treatment and gentle scraping, washed to remove residual enzyme, and plated with even dispersal at a ratio of 1:1 (surface area) on reduced growth factor […]™-coated 96-well black plates (Packard ViewPlates; PerkinElmer; Cat #6005182) using volumes of 100 μl/well. Cells were allowed to attach as clusters and then recover log phase growth over a 1 to 3 day period, feeding daily with MEF conditioned medium supplemented with 8 ng/ml bFGF (R&D Systems; Cat #233-FB). Plates were maintained at 37° C., 5% CO2 in a humidified box throughout the duration of assay. Growth factors purchased from R&D Systems were EGF (Cat #236-EG), FGF4 (Cat #235-F4), PDGF-A (Cat #221-AA), PDGF-D (Cat #1159-SB), PDGF-A/B (Cat #222-AB). […] Screening was conducted using a library of compounds that were made available as 5 mM stocks in 96-well plate format, solubilized in 100% DMSO (Sigma; Cat #D2650) and stored at −80° C. The compounds were further diluted to an intermediate concentration of 0.2 mM in 50 mM HEPES (Invitrogen; Cat #15630-080), 20% DMSO and stored at 4° C. Test conditions were performed in single wells, feeding on alternate days over a four-day assay period. Primary screening assays were initiated by aspirating culture medium from each well followed by three washes in PBS (Invitrogen; Cat #14190) to remove residual growth factors and serum. On the first day of assay, test volumes of 200 μl per well were added back containing DMEM:F12 base medium (Invitrogen; Cat #11330-032) supplemented with 0.5% FCS (HyClone; […] Cat #1324-WN) plus 2.5 μM compound. All remaining growth factors were tested at a final assay concentration of 50 ng/ml (EGF, FGF4, PDGF-A, PDGF-A/B, VEGF) with the exception of GDF-8 tested at 25 ng/ml. […] Cat #120-14). […] All remaining growth factors were tested at a final assay concentration of 50 ng/ml (EGF, FGF4, PDGF-A, PDGF-A/B, VEGF) with the exception of GDF-8 tested at 25 ng/ml. […] Cat #120-14). Negative control samples contained DMEM:F12 base medium supplemented with 2% FCS. […] At the conclusion of four-days of culture, assay plates were washed twice with PBS (Invitrogen; Cat #14190), fixed with 4% paraformaldehyde (Alexis Biochemical; Cat #ALX-350-011) at room temperature for 20 minutes, then washed three times with PBS and permeabilized with 0.5% Triton X-100 (Sigma; Cat #T8760-2) for 20 minutes at room temperature. Cells were washed again three times with PBS and blocked with 4% chicken serum (Invitrogen; Cat #16110082) in PBS for 30 minutes at room temperature. Primary antibody (goat anti-human SOX17; R&D Systems; Cat #AF1924) was diluted 1:100 in 4% chicken serum and added to each well for one hour at room temperature. Alexa Fluor 488 conjugated secondary antibody (chicken anti-goat IgG; Molecular Probes; Cat #AZ1467) was diluted 1:200 in PBS and added to each sample well after washing three times with PBS. To counterstain nuclei, 4 μg/ml Hoechst 33342 (Invitrogen; Cat #H3570) was added for ten minutes at room temperature. Plates were washed once with PBS and left in 100 μl/well PBS for imaging. Imaging was performed using an IN Cell Analyzer 1000 (GE Healthcare) utilizing the 51008bs dichroic for cells stained with Hoechst 33342 and Alexa Fluor 488. Exposure times were optimized from positive control wells and from untreated negative control wells stained with secondary antibody alone. Images from 15 fields per well were acquired to compensate for any cell loss during the bioassay and subsequent staining procedures. […] Segmentation for the nuclei was determined based on gray-scale levels (baseline range 100-300) and nuclear size. Averages and standard deviations were calculated for each replicate data set. […]

[2] = tested on: H1 human embryonic stem cells; assay: Analogue screening in combination with only GDF-8, SOX17 (Example 21, Tables 18 and 19); type: cell-based; design: Sox17 Expression: % of positive control / Cell Number: % of positive control: tested at 2.5 µM; details: compound in combination with GDF8; for Cell Number: Average Total Cell Number / Sox17 Expression: Average Total Intensity: four assay plates; for Cell Number: % of positive control / Sox17 Expression: % of positive control: relative to Activin A/Wnt3a of the same plate
Method: Briefly, clusters of H1 human embryonic stem cells were grown on reduced growth factor Matrigel™ (Invitrogen; Cat #356231)-coated tissue culture plastic. Cells were passaged using collagenase (Invitrogen; Cat #17104-019) treatment and gentle scraping, washed to remove residual enzyme, and plated with even dispersal at a ratio of 1:1 (surface area) on reduced growth factor […]™ (BD Biosciences; Cat #356231)-coated 96-well black plates (Packard ViewPlates; PerkinElmer; Cat #6005182) using volumes of 100 μl/well. Cells were allowed to attach and then recover log phase growth over a 1 to 3 day time period, feeding daily with MEF conditioned medium supplemented with 8 ng/ml bFGF (R&D Systems; Cat #233-FB). Plates were maintained at 37° C., 5% CO2 in a humidified box throughout the duration of assay.
Screening was conducted using a library of the analogue compounds. Compounds from this library were made available as 5 mM stocks in 96-well plate format, solubilized in 100% DMSO (Sigma; Cat #D2650) and stored at −80° C. The library compounds were further diluted to an intermediate concentration of 0.2 mM in 50 mM HEPES (Invitrogen; Cat #15630-080), 20% DMSO and stored at 4° C. Test conditions were performed in triplicate, feeding on alternating days over a four-day assay period. Assays were initiated by aspirating culture medium from each well followed by three washes in PBS (Invitrogen; Cat #14190) to remove residual growth factors. On the first day of assay, test volumes of 200 μl per well were added to each well using DMEM:F12 base medium (Invitrogen; Cat #11330-032) supplemented with 0.5% FCS (HyClone; Cat #SH30070.03) and 200 ng/ml GDF-8 (R&D Systems, Cat #788-G8) plus 2.5 μM compound. On the third day of assay, test volumes of 100 μl per well were added to each well using DMEM:F12 base medium supplemented with 2% FCS plus 200 ng/ml GDF-8 (R&D Systems, Cat #788-G8). Positive control samples contained the same base medium supplemented with FCS and 1000 ng/ml recombinant human activin A (PeproTech; Cat #120-14) throughout the four-day assay along with Wnt3a (20 ng/ml) on days 1 and 2. Negative control samples contained DMEM:F12 base medium supplemented with FCS, adding Wnt3a on days 1 and 2 but omitting treatment with activin A.
At the conclusion of four-days of culture, assay plates were washed twice with PBS (Invitrogen; Cat #14190), fixed with 4% paraformaldehyde (Alexis Biochemical; Cat #ALX-350-011) at room temperature for 20 minutes, then washed three times with PBS and permeabilized with 0.5% Triton X-100 (Sigma; Cat #T8760-2) for 20 minutes at room temperature. Cells were washed again three times with PBS and blocked with 4% chicken serum (Invitrogen; Cat #16110082) in PBS for 30 minutes at room temperature. Primary antibody (goat anti-human SOX17; R&D Systems; Cat #AF1924) was diluted 1:100 in 4% chicken serum and added to each well for one hour at room temperature. Alexa Fluor 488 conjugated secondary antibody (chicken anti-goat IgG; Molecular Probes; Cat #AZ1467) was diluted 1:200 in PBS and added to each sample well after washing three times with PBS. To counterstain nuclei, 4 μg/ml Hoechst 33342 (Invitrogen; Cat #H3570) was added for ten minutes at room temperature. Plates were washed once with PBS and left in 100 μl/well PBS for imaging.
Imaging was performed using an IN Cell Analyzer 1000 (GE Healthcare) utilizing the 51008bs dichroic for cells stained with Hoechst 33342 and Alexa Fluor 488. Exposure times were optimized from positive control wells and from untreated negative control wells stained with secondary antibody alone. Images from 15 fields per well were acquired to compensate for any cell loss during the bioassay and subsequent staining procedures. Measurements for total cell number and total SOX17 intensity were obtained from each well using IN Cell Developer Toolbox 1.7 (GE Healthcare) software. […]

[3] = Plate 1, compound + EGF, FGF, PDGF-A, VEGF, PDGF-D, muscimol, GDF8
[4] = Plate 1, compound + EGF, FGF, PDGF-A, VEGF, PDGF-D, muscimol, GDF8, positive control Activin A/Wnt3a
[5] = Table 8: hits with greater than 25% activity of the positive control, with GDF-8 and growth factors/agonists
[6] = Plate 2, compound + EGF, FGF, PDGF-A, VEGF, PDGF-D, muscimol, GDF8
[7] = Plate 2, compound + EGF, FGF, PDGF-A, VEGF, PDGF-D, muscimol, GDF8, positive control Activin A/Wnt3a

Row | SMILES | Cell Number, Average Total Cell Number [1, 3] | Sox17 Expression, Average Total Intensity [1, 3] | Cell Number, % of positive control [1, 4] | Sox17 Expression, % of positive control [1, 4] | Cell Number, % of positive control [1, 5] | Sox17 Expression, % of positive control [1, 5] | Sox17 Expression, Average Total Intensity [1, 5] | Cell Number: Average Total Cell Number [2] | Sox17 Expression: Average Total Intensity [2] | Cell Number: % of positive control [2] | Sox17 Expression: % of positive control [2] | Cell Number, Average Total Cell Number [1, 6] | Sox17 Expression, Average Total Intensity [1, 6] | Cell Number, % of positive control [1, 7] | Sox17 Expression, % of positive control [1, 7]
1 | O=C1NCCc2cccc(c2)Nc2ncnc(n2)-c2cccc(c2)CCCN2CCC1CC2 [Compound 31, 1,11,13,15,23,31-Hexaazapentacyclo[23.2.2.1˜5,9˜0.1˜10,14˜0.1˜16,20˜]dotriaconta-5(32), 6,8,10(31), 11,13,16(30), 17,19-nonaen-24-one] | 6957 | 6.59E+07 | 51.9 % of positive control | 26.3 % of positive control | 51.9 % of positive control | 26.3 % of positive control | 6.59E+07 | 3619 | 1.36E+07 | 24.1% | 3.9% | – | – | – | –
2 | CCN1CCCc2cccc(c2)-c2ncnc(n2)Nc2ccccc2CNC(=O)C1 [Compound 32, 15-Ethyl-13,14,15,16,18,19-hexahydro-1H-6,2-(azeno)-7,11-(metheno)-1,3,5,15,18-benzopentaazacyclohenicosin-17(12H)-one] | 8066 | 9.29E+07 | 60.2 % of positive control | 37.1 % of positive control | 60.2 % of positive control | 37.1 % of positive control | 9.29E+07 | 4338 | 3.63E+07 | 28.9% | 10.5% | – | – | – | –
3 | CN1CCCC(=O)NCCc2cccc(c2)Nc2ncnc(n2)-c2cccc(c2)CCC1 [Compound 33, 20-Methyl-3,5,7,15,20,30-hexaazatetracyclo[22.3.1.1˜2,6˜0.1˜8,12˜]triaconta-1(28), 2(30), 3,5,8(29), 9,11,24,26-nonaen-16-one] | – | – | – | – | 47.4 % of positive control | 28.3 % of positive control | 8.10E+07 | 2362 | 6.60E+06 | 15.4% | 2.0% | 7485 | 8.10E+07 | 47.4 % of positive control | 28.3 % of positive control
